Assay results from paper PMC11302837, “Efficacy of BRAF/MEK-inhibitor therapy for epithelioid glioblastoma with a novel BRAFV600 mutation” (Acta Neuropathologica Communications, 2024).

Assays:
[1] = Concentration of BRAF/MEK inhibitors in patient serum/plasma by LC-MS/MS; assay type: in vivo, human; settings: encorafenib/binimetinib given day 1-3 then discontinued, dabrafenib/trametinib from day 4
Method: (§1) Determination of BRAF/MEK inhibitors concentration in plasma and CSF of patients by liquid chromatography–tandem mass spectrometry
Sample preparation of plasma and CSF samples was different. Twenty microliters of plasma were diluted with 180 µL of water and mixed with 200 µL formic acid (1%). An automated solid phase extraction with an ASPEC XL (Gilson, Middleton, USA) and Oasis HLB (Waters, Milford, USA) cartridges were used. The cartridges were conditioned, loaded, washed and finally eluted with 1 mL methanol. The SPE extracts were evaporated to dryness and reconstituted with 200 µL. For quantification, 10-point external calibration curves in blank plasma at the range from 1.95 to 1000 µg/L for all four substances were freshly prepared and measured in parallel.
(§2) Native CSF samples were used with a standard addition method for quantification. A volume of 20 µl was always injected into the Ultimate 3000 HPLC system from Thermo Scientific system coupled to an API4000 tandem mass spectrometer (ABSciex, Darmstadt, Germany). The BRAF and MEK inhibitors encorafenib, binimetinib, dabrafenib and trametinib were separated by reversed phase chromatography with a Synergi 4 μm Hydro-RP 80 A, 150 × 3 mm column (Phenomenex, Torrance, USA).
(§3) The temperature of column was constantly at 40 °C. Determination of the analytes was performed using the multiple reaction monitoring mode with nitrogen as collision gas. For positive ionization, a capillary voltage of 4000 V (positive ion mode) was used. Quantification was performed by the peak area method, and a weighted (1/x) regression of first order yielded the concentrations.
(§4) Moreover, comprehensive analyses of the patients’ CSF and plasma using liquid chromatography-tandem mass spectrometry were performed to determine the concentrations of various MAPKi two, four, and five days after regimen modification, i.e. five, seven, and eight days following initiation of the targeted therapy. There was a clear accumulation of all MAPKi in the patient’s plasma (Table 2). The concentrations determined reside within the therapeutic range of the maximum and minimum plasma concentrations published (Table 2).

[2] = Tolerability of oral regimen in the patient; assay type: in vivo, human; settings: oral hard capsules and tablets; quantity and size
Method: Based on the promising results of the mutational and IHC analyses, a targeted therapy with the BRAF inhibitor, encorafenib and the MEK inhibitor, binimetinib was initiated. The dosage mirrored that of MM with 450 mg of encorafenib (i.e. 6 × 75 mg) administrated daily, and 45 mg of binimetinib (i.e. 3 × 15 mg), administrated twice daily. […] Consequently, after three days, the regimen was modified.

[3] = Concentration of BRAF/MEK inhibitors in patient CSF by LC-MS/MS; assay type: in vivo, human; settings: for CSF concentration: CSF via EVD; for Kp: human, CSF/serum, oral
Method: as §1, §2, §3, §4

[4] = parameters: method as in earlier work; settings: serum of patients; ref EMA product information sheet, Delord et al., 2017 [29], Sullivan et al., 2020 [30]; cited from earlier work
[5] = day 5 after treatment initiation
[6] = day 7 after treatment initiation
[7] = day 8 after treatment initiation

Row | Serum concentration [1, 5] | Serum concentration [1, 6] | Serum concentration [1, 7] | CSF concentration [3, 5] | CSF concentration [3, 6] | CSF concentration [3, 7] | Kp [3, 5] | Kp [3, 6] | Kp [3, 7] | Structure (SMILES) | Tolerability by the patient [2] | C max (maximum plasma concentration) [4] | C min (minimum plasma concentration) [4]
1 | 96.5 ng/mL | 19.1 ng/mL | 13.8 ng/mL | 10.3 ng/mL | 5.3 ng/mL | 5.0 ng/mL | 0.107 | 0.277 | 0.362 | Cn1cnc2c(F)c(Nc3ccc(Br)cc3F)c(C(=O)NOCCO)cc21 [Binimetinib, binimetinib] | poorly tolerated | 654 ng/mL | 51.4 ng/mL
2 | 8.8 ng/mL | 7.7 ng/mL | 9.2 ng/mL | 0.0 ng/mL | 0.3 ng/mL | 0.4 ng/mL | 0 | 0.039 | 0.043 | CC(=O)Nc1cccc(-n2c(=O)n(C3CC3)c(=O)c3c(Nc4ccc(I)cc4F)n(C)c(=O)c(C)c32)c1 [Trametinib, trametinib] | better tolerated | 22.2 ng/mL | 12.1 ng/mL
3 | 13.5 ng/mL | 5.7 ng/mL | 6.1 ng/mL | 2.4 ng/mL | 1.1 ng/mL | 1.1 ng/mL | 0.178 | 0.193 | 0.18 | COC(=O)N[C@@H](C)CNc1nccc(-c2cn(C(C)C)nc2-c2cc(Cl)cc(NS(C)(=O)=O)c2F)n1 [Encorafenib, encorafenib] | poorly tolerated | 3800 ng/mL | 13.9 ng/mL

Row | Structure (SMILES) | Serum concentration [1, 5] | Serum concentration [1, 6] | Serum concentration [1, 7] | CSF concentration [3, 5] | CSF concentration [3, 6] | CSF concentration [3, 7] | Kp [3, 5] | Kp [3, 6] | Kp [3, 7] | Tolerability by the patient [2] | C max (maximum plasma concentration) [4] | C min (minimum plasma concentration) [4]
4 | CC(C)(C)c1nc(-c2cccc(NS(=O)(=O)c3c(F)cccc3F)c2F)c(-c2ccnc(N)n2)s1 [Dabrafenib, dabrafenib] | 322.9 ng/mL | 188.0 ng/mL | 94.6 ng/mL | 5.4 ng/mL | 6.1 ng/mL | 1.5 ng/mL | 0.017 | 0.032 | 0.016 | better tolerated | 1478 ng/mL | 26 ng/mL
